Results as given in patent US20250241876A1, “ANTI-TUMOR COMPOUNDS AND METHODS OF USE THEREOF AND SYNTHESIS THEREOF” (Atossa Therapeutics, Inc., priority 2023, published 2025).

Assays:
Format in all cases: cell-based
[1] = tested on: estrogen-induced and ERα-mediated activation of an estrogen response element (ERE) luciferase reporter construct in ER+ T47D cells; assay: Luciferase (ERE reporter) agonist/antagonist assay, ER+ cells
MCF7 cells [2] = assay: Caspase-3/7 apoptosis assay, MCF7; details: 1.25, 2.5, 5 μM
Excerpt: This example covers anti-invasion, apoptosis, and toxicity assays for various endoxifen-related compounds against multiple cancer cell lines. FIGS. 90A-F are plots that summarize results of proliferation assays for multiple cancer cell lines (MCF7, T47D, UCD4, and UCD12) in the presence of varying doses of endoxifen and multiple endoxifen-related compounds. FIGS. 91A-C are plots that summarize results of wound confluence measurements from scratch wound assays on T47D cells in the presence of 1.25 μM (FIG. 91A), 2.5 μM (FIG. 91B), and 5 μM (FIG. 91C) endoxifen and multiple endoxifen-related compounds. FIGS. 92A-C are plots that summarize results of wound density measurements from scratch wound assays on T47D cells in the presence of 1.25 μM (FIG. 92A), 2.5 μM (FIG. 92B), and 5 μM (FIG. 92C) endoxifen and multiple endoxifen-related compounds. FIGS. 93A-C are plots that summarize results of wound confluence measurements from scratch wound assays on MCF7 cells in the presence of 1.25 μM (FIG. 93A), 2.5 μM (FIG. 93B), and 5 μM (FIG. 93C) endoxifen and multiple endoxifen-related compounds. FIGS. 94A-C are plots that summarize results of wound density measurements from scratch wound assays on MCF7 cells in the presence of 1.25 μM (FIG. 94A), 2.5 μM (FIG. 94B), and 5 μM (FIG. 94C) endoxifen and multiple endoxifen-related compounds. […]

UCD12 cells = assay: 2D culture proliferation, UCD12; details: for anti-proliferative activity compared with (Z)-endoxifen: estrogen-deficient conditions
Excerpt: (§1) Approximately 80% of breast cancers express estrogen receptor alpha (ERα, ESR1) which drives cancer progression. […] (Z)-Endoxifen (ENDX), an active metabolite of tamoxifen, is a potent orally bioavailable selective estrogen receptor modulator with a favorable safety profile now under development for breast health applications. Its synthesis yields endoxifen-related byproduct new chemical entities (NCE), including Compound 7b, Compound 7a, Compound 5b and Compound 5a. This study compared the anti-estrogenic effects of these compounds to (Z)-endoxifen in ERα+ breast cancer cell lines (MCF7, T47D, UCD12), including those with ESR1 mutations (Y537S, D538G) linked to endocrine resistance.

T47D cancer cells = assay: Cell cycle progression assay; details: higher concentration (2.5, 5 μM)
Method: This example covers cell cycle progression assays with endoxifen and multiple endoxifen-related compounds on T47D cancer cells. FIGS. 63A-G are plots that show absolute cell counts for cells in different cell cycle phases (G1 through S; G1; and S, G2, and M) following treatment with vehicle (DMSO) or 1.25 μM endoxifen, Compound 7b, Compound 7a, Compound 5b, Compound 5a, and Compound 3, respectively. FIGS. 64A-G are plots that show percent cell counts for cells in different cell cycle phases following treatment with vehicle or 1.25 μM endoxifen, Compound 7b, Compound 7a, Compound 5b, Compound 5a, and Compound 3, respectively. FIGS. 65A-G are plots that show absolute cell counts for cells in different cell cycle phases following treatment with vehicle or 2.5 μM endoxifen, Compound 7b, Compound 7a, Compound 5b, Compound 5a, and Compound 3, respectively. FIGS. 66A-G are plots that show percent cell counts for cells in different cell cycle phases following treatment with vehicle or 2.5 μM endoxifen, Compound 7b, Compound 7a, Compound 5b, Compound 5a, and Compound 3, respectively. FIGS. 67A-G are plots that show absolute cell counts for cells in different cell cycle phases following treatment with vehicle or 5 μM endoxifen, Compound 7b, Compound 7a, Compound 5b, Compound 5a, and Compound 3, respectively. […]

[3] = tested on: ERα+ breast cancer cell lines in 3D cultures; assay: 3D culture cancer cell proliferation; details: ~1 μM
Excerpt: as §1

T47D cells [4] = assay: 2D culture proliferation, T47D
Excerpt: as §1

MCF7 cells [5] = assay: Apoptosis induction, MCF7, Example 29; details: 1-5 μM; p<0.0001 vs. vehicle; p<0.0001 vs. (Z)-endoxifen
T47D cells [6] = assay: Crystal violet cell viability assay, T47D
Method: This example covers the cell toxicities of endoxifen and various endoxifen-related compounds. The toxicities of these compounds were measured using crystal violet cell viabilities assays per the protocols outlined in Feoktistova et al., Cold Spring Harb Protoc., 2016; 4 (PMID: 27037069). This assay utilizes crystal violet, which is a triarylmethane dye that binds to ribose type molecules such as DNA in nuclei. The amount of crystal violet staining is proportional to the cell biomass that is attached to the plate and thus this cell biomass can be used to infer levels of cell viability and cytotoxicity in control/experimental conditions. […]
FIGS. 34-39 summarize crystal violet assays with endoxifen (top-left plot in each figure), Compound 7b (top-middle plot in each figure), Compound 7a (top-right plot in each figure), Compound 5b (bottom-left plot in each figure), Compound 5a (bottom-middle plot in each figure), and Compound 3 (bottom-right plot in each figure). Each individual plot provides normalized absorbance (corresponding to cell concentration) over 25 nM to 5 μM concentration ranges, with the rightmost entry in each plot corresponding to vehicle treatment. […]

[7] = tested on: ERα+ breast cancer cell lines; assay: Cell cycle arrest, Example 29
Excerpt: as §1

T47D cells [8] = assay: Apoptosis induction, T47D, Example 29; details: p<0.0001 vs. vehicle
[9] = tested on: ERα+ breast cancer cell lines; assay: RT-qPCR analysis; details: 0.1 μM
[10] = 2D cultures, estrogen-containing media

| SMILES | agonist or antagonist behavior (luciferase assay) ([1]; T47D cell lines, FIGS. 72-74) | potency at inducing the apoptosis of MCF7 cells (MCF7 cells [2]) | anti-proliferative activity compared with (Z)-endoxifen (UCD12 cells) | cell cycle inhibition compared with endoxifen (T47D cancer cells) | potency in 3D cultures, ranking [3] | anti-proliferative effect, ranking (T47D cells [4]; [10]) | apoptosis induction in MCF7 cells (MCF7 cells [5]) | activity against T47D cells compared with endoxifen (T47D cells [6]; micromolar concentrations (FIG. 41)) | activity against T47D cells compared with endoxifen (T47D cells [6]; sub-100 nanomolar concentrations (FIG. 41)) | G1 cell cycle arrest [7] | anti-proliferative effects in ER+ cells compared with endoxifen ([1]; CSS+E2 media) | anti-proliferative effect, ranking (UCD12 cells; [10]) | anti-proliferative activity compared with (Z)-endoxifen (T47D cells [4]; estrogen-deficient conditions) | apoptosis induction in T47D cells (T47D cells [8]) | RT-qPCR analysis, potency ranking [9] |
| --- | --- | --- | --- | --- | --- | --- | --- | --- | --- | --- | --- | --- | --- | --- | --- |
| CC/C(=C(\c1ccc(O)cc1)c1ccc(OCC[N+](C)(C)C)cc1)c1ccccc1 [Compound 5a] | strong antagonistic behavior | equal potencies | more effective | slightly lower cell cycle inhibition activity than endoxifen | comparable, superior potency | strongest effects | surpassing (Z)-endoxifen | greater activity than endoxifen | lower activity against T47D cells than endoxifen | most effective | – | – | – | – | – |
| CC/C(=C(/c1ccc(O)cc1)c1ccc(OCC[N+](C)(C)C)cc1)c1ccccc1 [Compound 5b] | – | equal potencies | – | slightly lower cell cycle inhibition activity than endoxifen | – | – | surpassing (Z)-endoxifen | – | – | – | – | – | – | – | – |
| CC/C(=C(\c1ccc(O)cc1)c1ccc(OCCN(C)C(C)=O)cc1)c1ccccc1 [Compound 7a] | – | – | more effective | – | – | – | surpassing (Z)-endoxifen | – | – | – | closely resemble that of endoxifen | strongest effects | more effective | significantly induced | most potent |
